# Results reported in US20240365781A1, “SYNERGISTICALLY EFFECTIVE HERBICIDE COMPOSITION COMPRISING PELARGONIC ACID AND FLAZASULFURON” (Belchim Crop Protection NV, priority 2017, published 2024).
# What was measured:
# Experiment in all cases: post-emergence field trial under rows of apple trees, 150-200 L water/ha (Examples 10-12)
# Type in all cases: in vivo
# Chenopodium album = test system: Chenopodium album
# Protocol: (§1) Herbicidal activity was determined by performing a post-emergence test. […] The corresponding mixture was in the form of a spray solution. Besides, spray solutions of individual compositions comprising pelargonic acid or flazasulfuron were used.
# (§2) The spray solution was applied on plants of unwanted vegetation present on fields where perennial crops were grown.
# (§3) After 5 to 88 days after application of the spray solution, the degree of damage to the unwanted vegetation is rated in % of plants of unwanted vegetation that were killed. Tests were performed on test fields (field trials).
# Senecio vulgaris = test system: Senecio vulgaris
# Protocol: as §1, §2, §3
# Sonchus oleracea = test system: Sonchus oleracea
# Protocol: as §1, §2, §3
# Stellaria media = test system: Stellaria media
# Protocol: as §1, §2, §3
smiles,measurement,setting,value
"COc1cc(OC)nc(NC(=O)NS(=O)(=O)c2ncccc2C(F)(F)F)n1 [Flazasulfuron, 1-(4,6-dimethoxypyrimidin-2-yl)-3-(3-trifluoromethyl-2-pyridylsulfonyl)urea]",herbicidal effect (%),"Chenopodium album; Chenopodium album/6 d, 20 g of active compound/ha",13%
same,herbicidal effect (%),"Chenopodium album; Chenopodium album/16 d, 20 g of active compound/ha",59%
same,herbicidal effect (%),"Chenopodium album; Chenopodium album/30 d, 20 g of active compound/ha",63%
same,herbicidal effect (%),"Chenopodium album; Chenopodium album/57 d, 20 g of active compound/ha",58%
same,herbicidal effect (%),"Chenopodium album; Chenopodium album/78 d, 20 g of active compound/ha",64%
same,herbicidal effect (%),"Senecio vulgaris; Senecio vulgaris/6 d, 20 g of active compound/ha",4%
same,herbicidal effect (%),"Senecio vulgaris; Senecio vulgaris/28 d, 20 g of active compound/ha",13%
same,herbicidal effect (%),"Senecio vulgaris; Senecio vulgaris/58 d, 20 g of active compound/ha",18%
same,herbicidal effect (%),"Sonchus oleracea; Sonchus oleracea/6 d, 20 g of active compound/ha",18%
same,herbicidal effect (%),"Sonchus oleracea; Sonchus oleracea/16 d, 20 g of active compound/ha",28%
same,herbicidal effect (%),"Sonchus oleracea; Sonchus oleracea/30 d, 20 g of active compound/ha",43%
same,herbicidal effect (%),"Sonchus oleracea; Sonchus oleracea/57 d, 20 g of active compound/ha",23%
same,herbicidal effect (%),"Sonchus oleracea; Sonchus oleracea/78 d, 20 g of active compound/ha",45%
same,herbicidal effect (%),"Stellaria media; Stellaria media/5 d, 20 g of active compound/ha",0%
same,herbicidal effect (%),"Stellaria media; Stellaria media/18 d, 20 g of active compound/ha",79%
"CCCCCCCCC(=O)O [Pelargonic acid, nonanoic acid]",herbicidal effect (%),"Chenopodium album; Chenopodium album/6 d, 5440 g of active compound/ha",20%
same,herbicidal effect (%),"Chenopodium album; Chenopodium album/6 d, 8160 g of active compound/ha",50%
same,herbicidal effect (%),"Chenopodium album; Chenopodium album/6 d, 10880 g of active compound/ha",60%
same,herbicidal effect (%),"Chenopodium album; Chenopodium album/16 d, 5440 g of active compound/ha",48%
same,herbicidal effect (%),"Chenopodium album; Chenopodium album/16 d, 8160 g of active compound/ha",63%
same,herbicidal effect (%),"Chenopodium album; Chenopodium album/16 d, 10880 g of active compound/ha",63%
same,herbicidal effect (%),"Chenopodium album; Chenopodium album/30 d, 5440 g of active compound/ha",55%
same,herbicidal effect (%),"Chenopodium album; Chenopodium album/30 d, 8160 g of active compound/ha",58%
same,herbicidal effect (%),"Chenopodium album; Chenopodium album/30 d, 10880 g of active compound/ha",70%
same,herbicidal effect (%),"Chenopodium album; Chenopodium album/57 d, 5440 g of active compound/ha",0%
same,herbicidal effect (%),"Chenopodium album; Chenopodium album/57 d, 8160 g of active compound/ha",0%
same,herbicidal effect (%),"Chenopodium album; Chenopodium album/57 d, 10880 g of active compound/ha",0%
same,herbicidal effect (%),"Chenopodium album; Chenopodium album/78 d, 5440 g of active compound/ha",0%
same,herbicidal effect (%),"Chenopodium album; Chenopodium album/78 d, 8160 g of active compound/ha",0%
same,herbicidal effect (%),"Chenopodium album; Chenopodium album/78 d, 10880 g of active compound/ha",0%
same,herbicidal effect (%),"Senecio vulgaris; Senecio vulgaris/6 d, 5440 g of active compound/ha",26%
same,herbicidal effect (%),"Senecio vulgaris; Senecio vulgaris/6 d, 8160 g of active compound/ha",29%
same,herbicidal effect (%),"Senecio vulgaris; Senecio vulgaris/6 d, 10880 g of active compound/ha",29%
same,herbicidal effect (%),"Senecio vulgaris; Senecio vulgaris/28 d, 5440 g of active compound/ha",9%
same,herbicidal effect (%),"Senecio vulgaris; Senecio vulgaris/28 d, 10880 g of active compound/ha",11%
same,herbicidal effect (%),"Senecio vulgaris; Senecio vulgaris/58 d, 10880 g of active compound/ha",33%
same,herbicidal effect (%),"Sonchus oleracea; Sonchus oleracea/6 d, 5440 g of active compound/ha",25%
same,herbicidal effect (%),"Sonchus oleracea; Sonchus oleracea/6 d, 8160 g of active compound/ha",50%
same,herbicidal effect (%),"Sonchus oleracea; Sonchus oleracea/6 d, 10880 g of active compound/ha",55%
same,herbicidal effect (%),"Sonchus oleracea; Sonchus oleracea/16 d, 5440 g of active compound/ha",48%
same,herbicidal effect (%),"Sonchus oleracea; Sonchus oleracea/16 d, 8160 g of active compound/ha",43%
same,herbicidal effect (%),"Sonchus oleracea; Sonchus oleracea/16 d, 10880 g of active compound/ha",45%
same,herbicidal effect (%),"Sonchus oleracea; Sonchus oleracea/30 d, 5440 g of active compound/ha",40%
same,herbicidal effect (%),"Sonchus oleracea; Sonchus oleracea/30 d, 8160 g of active compound/ha",48%
same,herbicidal effect (%),"Sonchus oleracea; Sonchus oleracea/30 d, 10880 g of active compound/ha",53%
same,herbicidal effect (%),"Sonchus oleracea; Sonchus oleracea/57 d, 5440 g of active compound/ha",0%
same,herbicidal effect (%),"Sonchus oleracea; Sonchus oleracea/57 d, 8160 g of active compound/ha",0%
same,herbicidal effect (%),"Sonchus oleracea; Sonchus oleracea/57 d, 10880 g of active compound/ha",0%
same,herbicidal effect (%),"Sonchus oleracea; Sonchus oleracea/78 d, 5440 g of active compound/ha",0%
same,herbicidal effect (%),"Sonchus oleracea; Sonchus oleracea/78 d, 8160 g of active compound/ha",0%
same,herbicidal effect (%),"Sonchus oleracea; Sonchus oleracea/78 d, 10880 g of active compound/ha",0%
same,herbicidal effect (%),"Stellaria media; Stellaria media/5 d, 5440 g of active compound/ha",5%
same,herbicidal effect (%),"Stellaria media; Stellaria media/5 d, 10880 g of active compound/ha",89%
same,herbicidal effect (%),"Stellaria media; Stellaria media/18 d, 5440 g of active compound/ha",0%
same,herbicidal effect (%),"Stellaria media; Stellaria media/18 d, 8160 g of active compound/ha",0%
same,herbicidal effect (%),"Stellaria media; Stellaria media/18 d, 10880 g of active compound/ha",0%
